Laboratory results from US8551510B2, “Bed bug control and repellency” (Bedoukian Research, Inc., priority 2009, dated 2013).

Test system: bed bugs
Assay: Choice test with unconcealed bed bugs on filter paper discs, test compound in acetone vs. acetone only (percent repellency)
Assay type: in vivo
Settings: 0.5 h, read-out: percent repellency at 0.5 hr
Protocol: This test was undertaken employing unconcealed bugs. Two semicircular discs of filter paper, 9 cm in radius treated with 1 ml of solution to wet the entire surface, one treated with an acetone solution of the test compound and one only acetone treated were placed on the lid of a Petri dish. Five replicates of ten (10) bed bugs were release into the center of the lids of the Petri dish with a choice of the test compound treated or only acetone treated substrate. The distribution of bed bugs was recorded at ½, […], 2, 6 and 24 hours post-treatment. Paired t-tests were conducted for each treatment to ascertain whether or not there was a statistically significant difference in the number of bed bugs on the treated vs. untreated discs.

| Structure (SMILES) | pest or weed control at 0.5 % |
| --- | --- |
| CC(=O)C=CC1C(C)=CCCC1(C)C (stereo not drawn) [Alpha Ionone, 4-(2,6,6-trimethyl-2-cyclohexenyl)-3-buten-2-one] | 100% |
| CCCCCCCCCC(C)=O [Methyl nonyl ketone, methyl nonyl ketone] | 85.7% |

Same assay, conditions: 1 h, read-out: percent repellency at 1 hr

| Structure (SMILES) | pest or weed control at 0.5 % |
| --- | --- |
| CC(=O)C=CC1C(C)=CCCC1(C)C (stereo not drawn) [Alpha Ionone, 4-(2,6,6-trimethyl-2-cyclohexenyl)-3-buten-2-one] | 100% |
| CCCCCCCCCC(C)=O [Methyl nonyl ketone, methyl nonyl ketone] | 84% |

Same assay, conditions: 6 h, read-out: percent repellency at 6 hr

| Structure (SMILES) | pest or weed control at 0.5 % |
| --- | --- |
| CC(=O)C=CC1C(C)=CCCC1(C)C (stereo not drawn) [Alpha Ionone, 4-(2,6,6-trimethyl-2-cyclohexenyl)-3-buten-2-one] | 100% |
| CCCCCCCCCC(C)=O [Methyl nonyl ketone, methyl nonyl ketone] | 80% |

Same assay, conditions: 24 h, read-out: percent repellency at 24 hr

| Structure (SMILES) | pest or weed control at 0.5 % |
| --- | --- |
| CC(=O)C=CC1C(C)=CCCC1(C)C (stereo not drawn) [Alpha Ionone, 4-(2,6,6-trimethyl-2-cyclohexenyl)-3-buten-2-one] | 84% |
| CCCCCCCCCC(C)=O [Methyl nonyl ketone, methyl nonyl ketone] | 74% |

Same assay, conditions: chemical at 0.1% in acetone on filter paper; 0.5 hr post-treatment; read-out: percent repellency at 0.5 hr

| Structure (SMILES) | pest or weed control at 0.1 % |
| --- | --- |
| O=C1CCC/C=C\CCCCCCCCCC1 [Cyclohexadec-5-ene-1-one, (5Z) cyclohexadec-5-ene-1-one] | 94% |

Same assay, conditions: chemical at 0.1% in acetone on filter paper; 1 hr post-treatment; read-out: percent repellency at 1 hr

| Structure (SMILES) | pest or weed control at 0.1 % |
| --- | --- |
| O=C1CCC/C=C\CCCCCCCCCC1 [Cyclohexadec-5-ene-1-one, (5Z) cyclohexadec-5-ene-1-one] | 94% |

Same assay, conditions: chemical at 0.1% in acetone on filter paper; 6 hr post-treatment; read-out: percent repellency at 6 hr

| Structure (SMILES) | pest or weed control at 0.1 % |
| --- | --- |
| O=C1CCC/C=C\CCCCCCCCCC1 [Cyclohexadec-5-ene-1-one, (5Z) cyclohexadec-5-ene-1-one] | 100% |

Same assay, conditions: chemical at 0.1% in acetone on filter paper; 24 hr post-treatment; read-out: percent repellency at 24 hr

| Structure (SMILES) | pest or weed control at 0.1 % |
| --- | --- |
| O=C1CCC/C=C\CCCCCCCCCC1 [Cyclohexadec-5-ene-1-one, (5Z) cyclohexadec-5-ene-1-one] | 100% |

Same assay, conditions: chemical at 0.1%; 2 hour post-treatment (Table 2)

| Structure (SMILES) | percent repellency at 2 hour |
| --- | --- |
| C=C(C)C1CCC2=CC(=O)CC(C)C2(C)C1 (stereo not drawn) [Nootkatone, 4,4a-dimethyl-6-prop-1-en-2-yl-3,4,5,6,7,8-hexahydronaphthalen-2-one] | 60% |

Same assay, conditions: chemical at 0.1%; average of 0.5, 1, 6 and 24 hr; read-out: percent repellency, Average

| Structure (SMILES) | pest or weed control at 0.1 % |
| --- | --- |
| O=C1CCC/C=C\CCCCCCCCCC1 [Cyclohexadec-5-ene-1-one, (5Z) cyclohexadec-5-ene-1-one] | 97% |

Same assay, conditions: chemical at 0.2% in acetone on filter paper; 0.5 hr post-treatment; read-out: percent repellency at 0.5 hr

| Structure (SMILES) | pest or weed control at 0.2 % |
| --- | --- |
| CCCCOC(=O)CCC(C)=O [Butyl levulinate, reference compound] | 64% |
| CCC(C)=CCCC(C)=CCC1CCCC1=O (stereo not drawn) [Methyl Apritone, 2-(3,7-dimethyl-2,6-nonadienyl)cyclopentanone] | 100% |
| CCCCCC1C(=O)CCC1CC(=O)OC (stereo not drawn) [Methyl dihydrojasmonate, methyl 2-(3-oxo-2-pentylcyclopentyl)acetate] | 86% |
| CC/C=C\CC1C(=O)CCC1CC(=O)OC (stereo not drawn) [Methyl jasmonate, (Z)-methyl 2-(3-oxo-2-(pent-2-enyl)cyclopentyl)acetate] | 80% |

Same assay, conditions: chemical at 0.2% in acetone on filter paper; 1 hr post-treatment; read-out: percent repellency at 1 hr

| Structure (SMILES) | pest or weed control at 0.2 % |
| --- | --- |
| CCCCOC(=O)CCC(C)=O [Butyl levulinate, reference compound] | 68% |
| CCC(C)=CCCC(C)=CCC1CCCC1=O (stereo not drawn) [Methyl Apritone, 2-(3,7-dimethyl-2,6-nonadienyl)cyclopentanone] | 100% |
| CCCCCC1C(=O)CCC1CC(=O)OC (stereo not drawn) [Methyl dihydrojasmonate, methyl 2-(3-oxo-2-pentylcyclopentyl)acetate] | 96% |
| CC/C=C\CC1C(=O)CCC1CC(=O)OC (stereo not drawn) [Methyl jasmonate, (Z)-methyl 2-(3-oxo-2-(pent-2-enyl)cyclopentyl)acetate] | 90% |

Same assay, conditions: chemical at 0.2% in acetone on filter paper; 6 hr post-treatment; read-out: percent repellency at 6 hr

| Structure (SMILES) | pest or weed control at 0.2 % |
| --- | --- |
| CCCCOC(=O)CCC(C)=O [Butyl levulinate, reference compound] | 62% |
| CCC(C)=CCCC(C)=CCC1CCCC1=O (stereo not drawn) [Methyl Apritone, 2-(3,7-dimethyl-2,6-nonadienyl)cyclopentanone] | 100% |
| CCCCCC1C(=O)CCC1CC(=O)OC (stereo not drawn) [Methyl dihydrojasmonate, methyl 2-(3-oxo-2-pentylcyclopentyl)acetate] | 94% |
| CC/C=C\CC1C(=O)CCC1CC(=O)OC (stereo not drawn) [Methyl jasmonate, (Z)-methyl 2-(3-oxo-2-(pent-2-enyl)cyclopentyl)acetate] | 90% |

Same assay, conditions: chemical at 0.2% in acetone on filter paper; 24 hr post-treatment; read-out: percent repellency at 24 hr

| Structure (SMILES) | pest or weed control at 0.2 % |
| --- | --- |
| CCCCOC(=O)CCC(C)=O [Butyl levulinate, reference compound] | 60% |
| CCC(C)=CCCC(C)=CCC1CCCC1=O (stereo not drawn) [Methyl Apritone, 2-(3,7-dimethyl-2,6-nonadienyl)cyclopentanone] | 100% |
| CCCCCC1C(=O)CCC1CC(=O)OC (stereo not drawn) [Methyl dihydrojasmonate, methyl 2-(3-oxo-2-pentylcyclopentyl)acetate] | 92% |
| CC/C=C\CC1C(=O)CCC1CC(=O)OC (stereo not drawn) [Methyl jasmonate, (Z)-methyl 2-(3-oxo-2-(pent-2-enyl)cyclopentyl)acetate] | 88% |

Same assay, conditions: chemical at 0.2%; 2 hour post-treatment (Table 2)

| Structure (SMILES) | percent repellency at 2 hour |
| --- | --- |
| CCCCCC1C(=O)CCC1CC(=O)OCC (stereo not drawn) [Ethyl dihydrojasmonate, ethyl 2-(3-oxo-2-pentylcyclopentyl)acetate] | 90% |
| CCC(C)=CCCC(C)=CCC1CCCC1=O (stereo not drawn) [Methyl Apritone, 2-(3,7-dimethyl-2,6-nonadienyl)cyclopentanone] | 90% |
| CCCCCC1C(=O)CCC1CC(=O)OC (stereo not drawn) [Methyl dihydrojasmonate, methyl 2-(3-oxo-2-pentylcyclopentyl)acetate] | 98% |
| CCCCCC1C(=O)CCC1CC(=O)OCCC (stereo not drawn) [Propyl dihydrojasmonate, propyl 2-(3-oxo-2-pentylcyclopentyl)acetate] | 78% |
| CCC(C)CCCC(C)CCC1CCCC1=O (stereo not drawn) [Tetrahydro methyl apritone, 2-(3,7-dimethynonyl)cyclopentanone] | 88% |
| CC(C)CCCC(C)CCC1CCCC1=O (stereo not drawn) [Tetrahydroapritone] | 82% |
| CCCCCC1CC(=O)C=C(C)C1C(=O)OCC (stereo not drawn) [ethyl 2-methyl-4-oxo-6-pentylcyclohec-2-enecarboxylate] | 62% |

Same assay, conditions: chemical at 0.2%; average of 0.5, 1, 6 and 24 hr; read-out: percent repellency, Average

| Structure (SMILES) | pest or weed control at 0.2 % |
| --- | --- |
| CCCCOC(=O)CCC(C)=O [Butyl levulinate, reference compound] | 64% |
| CCC(C)=CCCC(C)=CCC1CCCC1=O (stereo not drawn) [Methyl Apritone, 2-(3,7-dimethyl-2,6-nonadienyl)cyclopentanone] | 100% |
| CCCCCC1C(=O)CCC1CC(=O)OC (stereo not drawn) [Methyl dihydrojasmonate, methyl 2-(3-oxo-2-pentylcyclopentyl)acetate] | 92% |
| CC/C=C\CC1C(=O)CCC1CC(=O)OC (stereo not drawn) [Methyl jasmonate, (Z)-methyl 2-(3-oxo-2-(pent-2-enyl)cyclopentyl)acetate] | 87% |

Same assay, conditions: chemical at 0.5% in acetone on filter paper; 0.5 hr post-treatment; read-out: percent repellency at 0.5 hr

| Structure (SMILES) | pest or weed control at 0.5 % |
| --- | --- |
| C=C(C)C1CCC2=CC(=O)CC(C)C2(C)C1 (stereo not drawn) [Nootkatone, 4,4a-dimethyl-6-prop-1-en-2-yl-3,4,5,6,7,8-hexahydronaphthalen-2-one] | 100% |

Same assay, conditions: chemical at 0.5% in acetone on filter paper; 1 hr post-treatment; read-out: percent repellency at 1 hr

| Structure (SMILES) | pest or weed control at 0.5 % |
| --- | --- |
| C=C(C)C1CCC2=CC(=O)CC(C)C2(C)C1 (stereo not drawn) [Nootkatone, 4,4a-dimethyl-6-prop-1-en-2-yl-3,4,5,6,7,8-hexahydronaphthalen-2-one] | 100% |

Same assay, conditions: chemical at 0.5% in acetone on filter paper; 6 hr post-treatment; read-out: percent repellency at 6 hr

| Structure (SMILES) | pest or weed control at 0.5 % |
| --- | --- |
| C=C(C)C1CCC2=CC(=O)CC(C)C2(C)C1 (stereo not drawn) [Nootkatone, 4,4a-dimethyl-6-prop-1-en-2-yl-3,4,5,6,7,8-hexahydronaphthalen-2-one] | 100% |

Same assay, conditions: chemical at 0.5% in acetone on filter paper; 24 hr post-treatment; read-out: percent repellency at 24 hr

| Structure (SMILES) | pest or weed control at 0.5 % |
| --- | --- |
| C=C(C)C1CCC2=CC(=O)CC(C)C2(C)C1 (stereo not drawn) [Nootkatone, 4,4a-dimethyl-6-prop-1-en-2-yl-3,4,5,6,7,8-hexahydronaphthalen-2-one] | 100% |

Same assay, conditions: chemical at 0.5%; average of 0.5, 1, 6 and 24 hr; read-out: percent repellency, Average

| Structure (SMILES) | pest or weed control at 0.5 % |
| --- | --- |
| C=C(C)C1CCC2=CC(=O)CC(C)C2(C)C1 (stereo not drawn) [Nootkatone, 4,4a-dimethyl-6-prop-1-en-2-yl-3,4,5,6,7,8-hexahydronaphthalen-2-one] | 100% |

Same assay, conditions: read-out: percent repellency, Average

| Structure (SMILES) | pest or weed control at 0.5 % |
| --- | --- |
| CC(=O)C=CC1C(C)=CCCC1(C)C (stereo not drawn) [Alpha Ionone, 4-(2,6,6-trimethyl-2-cyclohexenyl)-3-buten-2-one] | 96% |
| CCCCCCCCCC(C)=O [Methyl nonyl ketone, methyl nonyl ketone] | 80.9% |
